Measurements taken from patent US20230065158A1, “OXABICYCLOHEPTANES FOR TREATMENT OF SMALL CELL LUNG CANCER” (Lixte Biotechnology, Inc., priority 2021, published 2023).

How the values were obtained:
[1] = test system: H524 and H69 cells; assay: Colony formation assay; format: cell-based; settings: both cell lines; H524/H69: LB-100 2.5/20 μM, carboplatin 4/20 μM, etoposide 3/30 μM
Protocol: (§1) A Mann-Whitney U test was used for comparison between the normal and SCLC samples. FIG. 1B: IHC for PP2A was conducted on TMA tissue sections and images were captured at 4× or 20× using a 3D-Histech PANNORAMIC SCAN whole slide scanner (3D-Histech, Budapest, Hungary). […] TMAs were scored in normal (n=24) and tumor (n=79) cores on a scale from 0 (no staining/no protein expression) to 3+(strong staining/high protein expression). FIG. 1C: Summary bar graph of the average PP2A subunit staining. IHC staining intensity of normal and tumor cores. […] FIG. 1D: In order to compare the expression of PP2A subunits A and C, cell lysates from seven SCLC cell lines and HBEC 3KT (non-malignant cell line) were subjected to western blotting. FIG. 1E: PP2A activity was determined using a serine/threonine phosphatase activity assay (Millipore) after 24 h exposure to cantharidin (10 μM) and LB-100 (5 μM). […] The Cell Counting Kit-8 assay detected cell H524 and H69 cell viability. […] FIGS. 1I-1K: Graphs depict the mean+SEM of percent viability for cells (n=3). Colony formation assays were used to count the ability of H524 (FIGS. 11 and 1J) and H69 (FIGS. 1K and 1L) cells to form colonies. […] Representative images of colonies at 4× are shown under the graph (n=2).*p<0.05; **, p<0.01; *** p<0.001; ****, p<0.0001. Experiments were repeated in triplicate and representative data are shown.

[2] = test system: H526 cells; assay: Cell Counting Kit-8 cytotoxicity, H526; settings: Homo sapiens, NCI-H526, 72 h, read-out: Cytotoxicity IC50, H526
Description: (§2) To determine specific cytotoxicity, we used Cell Counting Kit-8 (Dojindo Molecular Technologies, Rockville, Md.) as previously described (50).

[3] = test system: H446 cells; assay: Cell Counting Kit-8 cytotoxicity, H446; settings: Homo sapiens, NCI-H446, 72 h, read-out: Cytotoxicity IC50, H446
Description: as §2

[4] = test system: H69 cells; assay: Cell Counting Kit-8 cytotoxicity and drug combination, H69; settings: Homo sapiens, NCI-H69, 72 h, read-out: Cytotoxicity IC50, H69; 72 hours
Protocol: as §1

[5] = test system: H524 cells; assay: Cell Counting Kit-8 cytotoxicity and drug combination, H524; settings: Homo sapiens, NCI-H524, 72 h, read-out: Cytotoxicity IC50, H524; 72 hours
Protocol: as §1

[6] = test system: H146 cells; assay: Cell Counting Kit-8 cytotoxicity, H146; settings: Homo sapiens, NCI-H146, 72 h, read-out: Cytotoxicity IC50, H146
Description: as §2

[7] = test system: H82 cells; assay: Cell Counting Kit-8 cytotoxicity, H82; settings: Homo sapiens, NCI-H82, 72 h, read-out: Cytotoxicity IC50, H82
Description: as §2

[8] = target: T1, PP2A (Homo sapiens, UniProt P67775); assay: PP2A immunoprecipitation Ser/Thr phosphatase activity assay in treated H524 cells; format: cell-based; settings: cantharidin 10 μM, 24 h
T1 construct: endogenous in cells; host or cells: H524 (human SCLC) cells
Protocol: FIGS. 1A-IL depict the effects of LB-100 on PP2A-A expression in SCLC tumors and cells. […] A Mann-Whitney U test was used for comparison between the normal and SCLC samples. FIG. 1B: IHC for PP2A was conducted on TMA tissue sections and images were captured at 4× or 20× using a 3D-Histech PANNORAMIC SCAN whole slide scanner (3D-Histech, Budapest, Hungary). […] TMAs were scored in normal (n=24) and tumor (n=79) cores on a scale from 0 (no staining/no protein expression) to 3+(strong staining/high protein expression). FIG. 1C: Summary bar graph of the average PP2A subunit staining. IHC staining intensity of normal and tumor cores. There was a statistically significant difference between normal and tumor tissue (p<0.001). FIG. 1D: In order to compare the expression of PP2A subunits A and C, cell lysates from seven SCLC cell lines and HBEC 3KT (non-malignant cell line) were subjected to western blotting. FIG. 1E: PP2A activity was determined using a serine/threonine phosphatase activity assay (Millipore) after 24 h exposure to cantharidin (10 μM) and LB-100 (5 μM). […] LB-100 alone or in combination with carboplatin inhibited proliferation and colony formation in SCLC cells. The Cell Counting Kit-8 assay detected cell H524 and H69 cell viability. […] FIGS. 1I-1K: Graphs depict the mean+SEM of percent viability for cells (n=3). […]

[9] = test system: H446 spheroids; assay: H446 spheroids with drugs and T cells, live imaging; format: cell-based; settings: without T cells, 48 h
Protocol: FIGS. 7A-7G depict results of T cells infiltration in H446 spheroids in the presence of LB100 and atezolizumab. FIG. 7A: Schematic of the effect of activated T cells on H446 spheroid degradation. At time point 0, single spheroids in 96 well plate were treated with LB-100, atezolizumab and T cells. Beads mimic in vivo T cell activation by two action signals CD3 and CD28. IncuCyte® Live-Cell Analysis System was used for the spheroidal imaging. Right panel presents spheroidal degeneration after 48 h incubation with LB-100, atezolizumab and activated T cells. FIGS. 7B and 7C: Automated image analysis provides metrics (0 h-μm, […]) and spheroid area (yellow-bright field mask). Column bars present mean values of spheroids at 0h. Representative images in bright field mask. […]
Cytotoxic CD8+ cells were isolated from whole blood, buffy coat of healthy donors following the protocol described in the Methods. […] Spheroid survival was monitored for 48 hours and their diameters were measured from phase contrast images. […]
H446 were generated as described in Materials and Methods (Monitoring of spheroid growth and cytotoxicity with the IncuCyte® Live-Cell Analysis System and IncuCyte® Cytotox reagent) following incubation with T cells and drugs. The effect of LB100 and atezolizumab in the presence of T cells was monitored with IncuCyte 3D Multi-Tumor Spheroid assay.

T1 sequence (P67775 whole entry): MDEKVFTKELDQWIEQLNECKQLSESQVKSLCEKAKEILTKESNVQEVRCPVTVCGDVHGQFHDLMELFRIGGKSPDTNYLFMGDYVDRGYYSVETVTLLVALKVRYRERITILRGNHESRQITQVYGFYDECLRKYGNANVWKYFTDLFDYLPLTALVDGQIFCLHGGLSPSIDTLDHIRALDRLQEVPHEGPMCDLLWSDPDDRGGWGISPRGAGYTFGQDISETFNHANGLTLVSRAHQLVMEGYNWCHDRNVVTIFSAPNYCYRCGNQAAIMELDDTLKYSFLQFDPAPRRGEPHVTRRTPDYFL
T1 sequence (P30153 whole entry partner): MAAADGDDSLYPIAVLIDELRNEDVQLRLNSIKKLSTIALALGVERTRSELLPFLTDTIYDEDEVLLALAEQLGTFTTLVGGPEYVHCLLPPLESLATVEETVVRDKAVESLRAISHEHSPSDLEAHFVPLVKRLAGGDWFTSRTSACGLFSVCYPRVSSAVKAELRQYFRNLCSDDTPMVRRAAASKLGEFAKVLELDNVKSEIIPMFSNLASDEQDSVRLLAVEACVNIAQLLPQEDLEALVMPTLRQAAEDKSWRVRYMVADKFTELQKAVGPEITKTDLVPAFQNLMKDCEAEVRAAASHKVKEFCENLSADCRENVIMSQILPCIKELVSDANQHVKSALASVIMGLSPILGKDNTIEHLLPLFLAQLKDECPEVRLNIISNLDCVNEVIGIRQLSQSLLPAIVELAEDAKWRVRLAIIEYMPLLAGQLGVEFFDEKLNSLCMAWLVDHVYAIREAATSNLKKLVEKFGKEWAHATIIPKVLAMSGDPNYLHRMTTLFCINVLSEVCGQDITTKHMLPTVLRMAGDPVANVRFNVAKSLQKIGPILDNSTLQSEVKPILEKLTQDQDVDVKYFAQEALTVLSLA

## COc1cc([C@@H]2c3cc4c(cc3[C@@H](O[C@@H]3O[C@@H]5CO[C@@H](C)O[C@H]5[C@H](O)[C@H]3O)[C@H]3COC(=O)[C@H]23)OCO4)cc(OC)c1O [Etoposide]
[1]
  colony formation: significantly reduced colony formation
[2]
  IC50: 2.8 µM
[3]
  IC50: 3 µM
[4]
  IC50: 30 µM
[5]
  IC50: 3 µM
[6]
  IC50: 31.2 µM
[7]
  IC50: 22.6 µM

## C[C@@]12C(=O)OC(=O)[C@]1(C)[C@H]1CC[C@@H]2O1 [cantharidin, reference compound]
[8]
  PP2A activity reduced by: ~90%

## atezolizumab: humanized immunoglobulin (Ig) G1 monoclonal antibody that targets PD-L1 [reference compound]
[9]
  effect on spheroids (degeneration), drug alone: no effect
